# Measured values: BindingDB's records for doi:10.7270/Q2125R3Z (Burnham Center For Chemical Genomics, 2010)
# Molecular target: Delta-type opioid receptor (Homo sapiens, UniProt P41143)
# Assay: DOR agonists, SAR follow-up, image-based (AID 2370)
# Sequence of Delta-type opioid receptor (P41143 whole entry): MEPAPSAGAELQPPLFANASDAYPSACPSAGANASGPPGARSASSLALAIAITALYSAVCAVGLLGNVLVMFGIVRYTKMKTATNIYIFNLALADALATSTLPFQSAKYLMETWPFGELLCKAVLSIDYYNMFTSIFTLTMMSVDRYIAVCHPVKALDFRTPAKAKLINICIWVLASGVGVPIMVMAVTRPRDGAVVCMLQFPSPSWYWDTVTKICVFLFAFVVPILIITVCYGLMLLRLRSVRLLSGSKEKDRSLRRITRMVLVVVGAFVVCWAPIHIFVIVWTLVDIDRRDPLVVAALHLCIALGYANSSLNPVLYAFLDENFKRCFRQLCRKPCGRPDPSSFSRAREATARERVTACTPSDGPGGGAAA
row,Compound,EC50
1,"CCC(N=Nc1ccnc2cc(Cl)ccc12)c1ccc(O)cc1 (configuration not stated) [4-[1-[2-(7-chloroquinolin-4-yl)hydrazinyl]propylidene]cyclohexa-2,5-dien-1-one]",30.7 µM
2,"Oc1ccc(CN=Nc2ccnc3cc(Cl)ccc23)cc1O [(4Z)-4-[[2-(7-chloroquinolin-4-yl)hydrazinyl]methylidene]-2-hydroxycyclohexa-2,5-dien-1-one]",> 32 µM
